Where two headings read alike, the source gives them in different places.
Test system: superior mesenteric artery (contracted by potassium chloride)
Assay: Vessel Smooth Muscle Relaxation Action (V.R.)
Type: cell-based, rabbit
Settings: concentration relaxing KCl-contracted strain to 50%, cumulative administration, read-out: V.R. (ED50)
Description: The specimen was suspended by loading a strain in Krebs-Henseleit solution through which an oxygen gas containing 5% carbon dioxide was bubbled. The specimen was contracted by adding potassium chloride to maintain a predetermined strain. Thereafter, a test compound was cumulatively administrated.

| SMILES | EC50 (Oryctolagus cuniculus) | EC50 |
| --- | --- | --- |
| O=S(=O)(NC(Cc1cnc[nH]1)CN1CCN(c2ccccc2)CC1)c1cccc2cnccc12 (stereo not drawn) [Example 2, N-[1-(Imidazol-4(5)-Yl-Methyl)-2-(4-Phenylpiperazinyl)Ethyl]-5-IsoquinolineSulfonamide] | 47 µM | – |
| CN(C(Cc1ccc(O)c(O)c1)CN1CCN(c2ccccc2)CC1)S(=O)(=O)c1cccc2cnccc12 (stereo not drawn) [Example 7, N-{1-[(3,4-Dihydroxyphenyl)Methyl]-2-(4-Phenylpiperazinyl)Ethyl}-N-Methyl-Isoquinoline Sulfonamide] | 1.6 µM | – |
| O=S(=O)(NC(Cc1ccc(O)c(O)c1)CN1CCN(c2ccccc2)CC1)c1cccc2cnccc12 (stereo not drawn) [Example 8, N-{1-[(3,4-Dihydroxyphenyl)Methyl]-2-(4-Phenylpiperazinyl)Ethyl}-5-Isoquinoline Sulfonamide] | 1.8 µM | – |
| O=S(=O)(c1cccc2cnccc12)N1Cc2cc(O)c(O)cc2CC1CN1CCN(c2ccccc2)CC1 (stereo not drawn) [Example 10, 6,7-Dihydroxy-2-(5-Isoquinolinesulfonyl)-3-[(4-Phenylpiperazinyl)methyl]-1,2,3,4-tetrahydroisoquinoline] | 6.4 µM | – |
| Cc1ccc(S(=O)(=O)Nc2ccc(C[C@@H](C(=O)N3CCN(c4ccccc4)CC3)N(C)S(=O)(=O)c3cccc4cnccc34)cc2)cc1 [Example 22, 1-[N-(5-isoquinolinesulfonyl)-N-methyl-p-(p-toluenesulfonylamino)phenylalanyl]-4-phenylpiperazine] | 1.8 µM | – |
| O=C(CCc1ccccc1)N1CCN(C(=O)[C@H](Cc2ccc(O)cc2)NS(=O)(=O)c2cccc3cnccc23)CC1 [Example 31, 1-[N-(5-isoquinolinesulfonyl)tyrosyl]-4-(3-phenylpropionyl)piperazine] | 24 ± 7 µM | – |
| O=C([C@H](Cc1ccc(O)cc1)NS(=O)(=O)c1cccc2cnccc12)N1CCN(CCCc2ccccc2)CC1 [Example 33, 1-[N-(5-Isoquinolinesulfonyl)Tyrosyl]-4-(3-Phenylpropyl)Piperazine] | 21 µM | – |
| O=S(=O)(NC(Cc1ccc(OS(=O)(=O)c2cccc3cnccc23)cc1)CN1CCN(c2ccccc2)CC1)c1cccc2cnccc12 (stereo not drawn) [Example 34] | 1.8 µM | – |
| CN(C(Cc1ccc(OS(=O)(=O)c2cccc3cnccc23)cc1)CN1CCN(c2ccccc2)CC1)S(=O)(=O)c1cccc2cnccc12 (stereo not drawn) [Example 35] | 6.9 µM | – |
| O=S(=O)(NC(Cc1ccc(O)cc1)CN1CCN(c2ccccc2)CC1)c1cccc2cnccc12 (stereo not drawn) [Example 37, N-[1-(p-hydroxybenzyl)-2-(4-phenylpiperazinyl)ethyl]-5-isoquinolinesulfonamide] | 4.4 µM | – |
| COc1ccc(CC(CN2CCN(c3ccccc3)CC2)N(C)S(=O)(=O)c2cccc3cnccc23)cc1 (stereo not drawn) [Example 38, N-[1-(P-Methoxybenzyl)-2-(4-Phenylpiperazinyl)Ethyl]-N-Methyl-5-Isoquinolinesulfonamide] | 8.1 µM | – |
| CN(C(Cc1ccc(O)cc1)CN1CCN(c2ncccn2)CC1)S(=O)(=O)c1cccc2cnccc12 (stereo not drawn) [Example 42, N-{1-(p-hydroxybenzyl)-2-[4-(2-pyrimidyl)piperazinyl]ethyl}-N-methyl-5-isoquinolinesulfonamide] | 6.2 µM | – |
| CN(C(Cc1ccccc1)CN1CCN(c2ccccc2)CC1)S(=O)(=O)c1cccc2cnccc12 (stereo not drawn) [Example 43, N-[1-benzyl-2-(4-phenylpiperazinyl)ethyl]-N-methyl-5-isoquinolinesulfonamide] | 0.36 µM | – |
| CN(C(Cc1ccc(OS(=O)(=O)c2cccc3cnccc23)cc1)CN1CCN(c2ccccn2)CC1)S(=O)(=O)c1cccc2cnccc12 (stereo not drawn) [Example 45, N-{1-[p-(5-isoquinolinesulfonyloxy)benzyl]-2-[4-(2-pyridyl)piperazinyl]ethyl}-N-methyl-5-isoquinolinesulfonamide] | 7.5 µM | – |
| CN(C(Cc1ccc(O)cc1)CN1CCN(c2ccccn2)CC1)S(=O)(=O)c1cccc2cnccc12 (stereo not drawn) [Example 46, N-{1-(p-hydroxybenzyl)-2-[4-(2-pyridyl)piperazinyl]ethyl}-N-methyl-5-isoquinolinesulfonamide] | 4 µM | – |
| CN(C(Cc1ccc(O)cc1)CN1CCN(c2cccc(Cl)c2)CC1)S(=O)(=O)c1cccc2cnccc12 (stereo not drawn) [Example 47, N-{2-[4-(m-chlorophenyl)piperazinyl]-1-(p-hydroxybenzyl)ethyl}-N-methyl-5-isoquinolinesulfonamide] | 0.39 µM | – |
| CN(C(Cc1ccc(OS(=O)(=O)c2cccc3cnccc23)cc1)CN1CCN(c2ccc(F)cc2)CC1)S(=O)(=O)c1cccc2cnccc12 (stereo not drawn) [Example 49] | 0.92 µM | – |
| Cc1cccc(N2CCN(CC(Cc3ccc(O)cc3)N(C)S(=O)(=O)c3cccc4cnccc34)CC2)c1 (stereo not drawn) [Example 51, N-{1-(p-hydroxybenzyl)-2-[4-(m-methylphenyl)piperazinyl]ethyl}-N-methyl-5-isoquinolinesulfonamide] | 0.17 µM | – |
| COc1ccc(N2CCN(CC(Cc3ccc(OS(=O)(=O)c4cccc5cnccc45)cc3)NS(=O)(=O)c3cccc4cnccc34)CC2)cc1 (stereo not drawn) [Example 52] | 9.9 µM | – |
| COc1ccc(N2CCN(CC(Cc3ccc(OS(=O)(=O)c4cccc5cnccc45)cc3)N(C)S(=O)(=O)c3cccc4cnccc34)CC2)cc1 (stereo not drawn) [Example 53, N-{1-[p-(5-isoquinolinesulfonyloxy)benzyl]-2-[4-(p-methoxyphenyl)piperazinyl]ethyl}-N-methyl-5-isoquinolinesulfonamide] | 1.3 µM | – |
| COc1ccc(N2CCN(CC(Cc3ccc(O)cc3)N(C)S(=O)(=O)c3cccc4cnccc34)CC2)cc1 (stereo not drawn) [Example 54, N-{1-(p-hydroxybenzyl)-2-[4-(p-methoxyphenyl)piperazinyl]ethyl}-N-methyl-5-isoquinolinesulfonamide] | 1.7 µM | – |

The remaining lines, values ahead:

| EC50 (Oryctolagus cuniculus) | EC50 | SMILES |
| --- | --- | --- |
| 8.6 µM | – | COc1ccc(N2CCN(CC(Cc3ccc(O)cc3)NS(=O)(=O)c3cccc4cnccc34)CC2)cc1 (stereo not drawn) [Example 55, N-{1-(p-hydroxybenzyl)-2-[4-(p-methoxyphenyl)piperazinyl]ethyl}-5-isoquinolinesulfonamide] |
| 1.2 µM | – | COc1ccccc1N1CCN(CC(Cc2ccc(O)cc2)N(C)S(=O)(=O)c2cccc3cnccc23)CC1 (stereo not drawn) [Example 56, N-{1-(p-hydroxybenzyl)-2-[4-(2-methoxyphenyl)piperazinyl]ethyl}-N-methyl-5-isoquinolinesulfonamide] |
| 2.3 µM | – | CN(C(Cc1ccc(O)cc1)CN1CCN(S(=O)(=O)c2ccccc2)CC1)S(=O)(=O)c1cccc2cnccc12 (stereo not drawn) [Example 62, N-{2-[(4-Benzenesulfonyl)Piperazinyl)-1-(P-Hydroxybenzyl)-Ethyl}-N-Methyl-5-Isoquinolinesulfonamide] |
| 2.2 µM | – | CN(C(Cc1ccc(O)cc1)CN1CCN(C(=O)OCc2ccccc2)CC1)S(=O)(=O)c1cccc2cnccc12 (stereo not drawn) [Example 67, N-[2-(4-benzyloxycarbonylpiperazinyl)-1-(p-hydroxybenzyl)ethyl]-N-methyl-5-isoquinolinesulfonamide] |
| – | 14 µM | O=S(=O)(NC(Cc1ccc(O)cc1)CN1CCN(CCCc2ccccc2)CC1)c1cccc2cnccc12 (stereo not drawn) [Example 69, N-{1-(p-hydroxybenzyl)-2-[4-(3-phenylpropyl)piperazinyl]ethyl}-5-isoquinolinesulfonamide] |
| 4 µM | – | COc1ccc(CC(CN2CCN(C(=O)OCc3ccccc3)CC2)N(C)S(=O)(=O)c2cccc3cnccc23)cc1 (stereo not drawn) [Example 72, N-[2-(4-benzyloxycarbonylpiperazinyl)-1-(p-methoxybenzyl)ethyl]-N-methyl-5-isoquinolinesulfonamide] |
| 14 µM | – | COc1ccc(CC(CN2CCN(C(=O)OCc3ccccc3)CC2)NS(=O)(=O)c2cccc3cnccc23)cc1 (stereo not drawn) [Example 73, N-[2-(4-benzyloxycarbonylpiperazinyl)-1-(p-methoxybenzyl)ethyl]-5-isoquinolinesulfonamide] |
| 9.7 µM | – | CN(C(Cc1ccc(O)cc1)CN1CCN(C(=O)c2ccccc2)CC1)S(=O)(=O)c1cccc2cnccc12 (stereo not drawn) [Example 75, N-[2-(4-Benzoylpiperazinyl)-1-(P-Hydroxybenzyl)Ethyl]-N-Methyl-5-Isoquinolinesulfonamide] |
| 2.9 µM | – | CN(C(Cc1ccc(O)cc1)CN1CCN(S(=O)(=O)Cc2ccccc2)CC1)S(=O)(=O)c1cccc2cnccc12 (stereo not drawn) [Example 76, N-[2-(4-benzylsulfonylpiperazinyl)-1-(p-hydroxybenzyl)ethyl]-N-methyl-5-isoquinolinesulfonamide] |
| 1.4 µM | – | CN(C(Cc1ccc(O)cc1)CN1CCN(S(=O)(=O)c2cccc3cnccc23)CC1)S(=O)(=O)c1cccc2cnccc12 (stereo not drawn) [Example 77, N-{1-(p-hydroxybenzyl]-2-[4-(5-isoquinolinesulfonyl)piperazinyl]ethyl}-N-methyl-5-isoquinolinesulfonamide] |
| 1.8 µM | – | CN(C(Cc1ccc(OS(=O)(=O)c2cccc3ccccc23)cc1)CN1CCN(C(=O)OCc2ccccc2)CC1)S(=O)(=O)c1cccc2ccccc12 (stereo not drawn) [Example 78, N-{2-(4-benzyloxycarbonylpiperazinyl)-1-[p-(α-naphtharenesulfonyloxy)benzyl]ethyl}-N-methyl-α-naphtharenesulfonamide] |
| 5.5 µM | – | CN(C(Cc1ccc(O)cc1)CN1CCN(C(=O)OCc2ccccc2)CC1)S(=O)(=O)c1cccc2ccccc12 (stereo not drawn) [Example 79, N-[2-(4-benzyloxycarbonylpiperazinyl)-1-(p-hydroxybenzyl)ethyl]-N-methyl-α-naphtharenesulfonamide] |
| 1.7 µM | – | CN(C(Cc1ccc(OS(=O)(=O)c2cccc3cnccc23)cc1)CN1CCCN(c2ccccc2)CC1)S(=O)(=O)c1cccc2cnccc12 (stereo not drawn) [Example 81, N-{1-[p-(5-isoquinolinesulfonyloxy)benzyl]-2-(4-phenylhomopiperazinyl)ethyl}-N-methyl-5-isoquinolinesulfonamide] |
| 43 µM | – | Cc1ccc(COC2CCN(CC(Cc3ccc(OS(=O)(=O)c4cccc5cnccc45)cc3)NS(=O)(=O)c3cccc4cnccc34)CC2)cc1 (stereo not drawn) [Example 84] |
| 22 µM | – | CN(C(Cc1ccc(O)cc1)CN1CCC(NCc2ccccc2)CC1)S(=O)(=O)c1cccc2cnccc12 (stereo not drawn) [Example 98, N-{2-[4-(N-benzylamino)piperidino]-1-(p-hydroxybenzyl)ethyl}-N-methyl-5-isoquinolinesulfonamide] |
